From PubChem BioAssay (NCI)
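Method: 48-hour compound exposure of cells in 96-well plates, five concentrations, linear interpolation of endpoints. Here, GI50 denotes the concentration required for 50% inhibition of growth. TGI marks complete inhibition of growth.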

Key:
Assay in all cases: inhibition of tumour cell growth, NCI panel, 48 h
SK-MEL-28 melanoma = system: SK-MEL-28 melanoma
TK-10 renal = system: TK-10 renal
MDA-MB-435 = system: MDA-MB-435
SNB-75 CNS = system: SNB-75 CNS
OVCAR-5 ovarian = system: OVCAR-5 ovarian
SF-295 CNS = system: SF-295 CNS
NCI/ADR-RES ovarian = system: NCI/ADR-RES ovarian
DU-145 prostate = system: DU-145 prostate
PC-3 prostate = system: PC-3 prostate
UACC-62 melanoma = system: UACC-62 melanoma
A498 renal = system: A498 renal
ACHN renal = system: ACHN renal
SK-OV-3 ovarian = system: SK-OV-3 ovarian
HCT-15 colon = system: HCT-15 colon
CAKI-1 renal = system: CAKI-1 renal
CCRF-CEM leukemia = system: CCRF-CEM leukemia
BT-549 breast = system: BT-549 breast
HT29 colon = system: HT29 colon
MOLT-4 leukemia = system: MOLT-4 leukemia
SR leukemia = system: SR leukemia
SN12C renal = system: SN12C renal
SF-539 CNS = system: SF-539 CNS
OVCAR-4 ovarian = system: OVCAR-4 ovarian
UO-31 renal = system: UO-31 renal
U251 CNS = system: U251 CNS
NCI-H23 lung = system: NCI-H23 lung
NCI-H226 lung = system: NCI-H226 lung
SNB-19 CNS = system: SNB-19 CNS
EKVX NSCLC = system: EKVX NSCLC
MALME-3M melanoma = system: MALME-3M melanoma
MDA-MB-231 breast = system: MDA-MB-231 breast
OVCAR-3 ovarian = system: OVCAR-3 ovarian
UACC-257 melanoma = system: UACC-257 melanoma
M14 melanoma = system: M14 melanoma
COLO 205 colon = system: COLO 205 colon
A549 NSCLC = system: A549 NSCLC
HCT-116 colon = system: HCT-116 colon
K-562 leukemia = system: K-562 leukemia
SK-MEL-2 melanoma = system: SK-MEL-2 melanoma
HS 578T breast = system: HS 578T breast
MCF7 breast = system: MCF7 breast
HOP-62 NSCLC = system: HOP-62 NSCLC
SK-MEL-5 melanoma = system: SK-MEL-5 melanoma
OVCAR-8 ovarian = system: OVCAR-8 ovarian
KM12 colon = system: KM12 colon
T-47D breast = system: T-47D breast
IGROV1 ovarian = system: IGROV1 ovarian
NCI-H522 lung = system: NCI-H522 lung
SF-268 CNS = system: SF-268 CNS
RPMI-8226 leukemia = system: RPMI-8226 leukemia
HCC-2998 colon = system: HCC-2998 colon
LOX IMVI melanoma = system: LOX IMVI melanoma
NCI-H460 lung = system: NCI-H460 lung
786-0 renal = system: 786-0 renal
SW-620 colon = system: SW-620 colon
RXF 393 renal = system: RXF 393 renal
HOP-92 NSCLC = system: HOP-92 NSCLC
HL-60(TB) leukemia = system: HL-60(TB) leukemia

SMILES: CCCc1cn2c(/C=N/N=C(N)N)c(-c3ccc(Cl)c([N+](=O)[O-])c3)nc2s1
- TGI (SK-MEL-28 melanoma): 3.1 µM
- TGI (TK-10 renal): 2.91 µM
- TGI (MDA-MB-435): 3.21 µM
- TGI (SNB-75 CNS): 3.12 µM
- TGI (OVCAR-5 ovarian): 2.89 µM
- TGI (SF-295 CNS): 3.1 µM
- TGI (NCI/ADR-RES ovarian): 4.95 µM
- TGI (DU-145 prostate): 3.15 µM
- TGI (PC-3 prostate): 3.53 µM
- TGI (UACC-62 melanoma): 3.38 µM
- TGI (A498 renal): 3.2 µM
- TGI (ACHN renal): 3.06 µM
- TGI (SK-OV-3 ovarian): 2.86 µM
- TGI (HCT-15 colon): 3.07 µM
- TGI (CAKI-1 renal): 3.28 µM
- TGI (CCRF-CEM leukemia): 0.375 µM
- TGI (BT-549 breast): 3.08 µM
- TGI (HT29 colon): 2.04 µM
- TGI (MOLT-4 leukemia): 0.546 µM
- TGI (SR leukemia): 2.75 µM
- TGI (SN12C renal): 3.33 µM
- TGI (SF-539 CNS): 3.31 µM
- TGI (OVCAR-4 ovarian): 2.28 µM

SMILES: O=C1c2cc(F)ccc2-c2c1c1ccc([N+](=O)[O-])cc1c(=O)n2CCCBr
- GI50 (UO-31 renal): 13.9 µM
- TGI (UO-31 renal): > 100 µM
- GI50 (SK-MEL-28 melanoma): 69.6 µM
- TGI (SK-MEL-28 melanoma): > 100 µM
- GI50 (TK-10 renal): 64.8 µM
- TGI (TK-10 renal): > 100 µM
- GI50 (U251 CNS): 9.87 µM
- TGI (U251 CNS): > 100 µM
- GI50 (MDA-MB-435): 37.5 µM
- TGI (MDA-MB-435): > 100 µM
- GI50 (NCI-H23 lung): 18.4 µM
- TGI (NCI-H23 lung): 85.4 µM
- GI50 (SNB-75 CNS): 2.97 µM
- TGI (SNB-75 CNS): 50.5 µM
- GI50 (OVCAR-5 ovarian): 65.5 µM
- TGI (OVCAR-5 ovarian): > 100 µM
- GI50 (SF-295 CNS): 17.8 µM
- TGI (SF-295 CNS): > 100 µM
- GI50 (NCI-H226 lung): 22.6 µM
- TGI (NCI-H226 lung): > 100 µM
- GI50 (SNB-19 CNS): 8.13 µM
- TGI (SNB-19 CNS): > 100 µM
- GI50 (EKVX NSCLC): > 100 µM
- TGI (EKVX NSCLC): > 100 µM
- GI50 (NCI/ADR-RES ovarian): 4.37 µM
- TGI (NCI/ADR-RES ovarian): 41.3 µM
- GI50 (MALME-3M melanoma): 66.3 µM
- TGI (MALME-3M melanoma): > 100 µM
- GI50 (MDA-MB-231 breast): > 100 µM
- TGI (MDA-MB-231 breast): > 100 µM
- GI50 (DU-145 prostate): 3.38 µM
- TGI (DU-145 prostate): > 100 µM
- GI50 (OVCAR-3 ovarian): 46.8 µM
- TGI (OVCAR-3 ovarian): > 100 µM
- GI50 (UACC-257 melanoma): 13.1 µM
- TGI (UACC-257 melanoma): 82.6 µM
- GI50 (PC-3 prostate): 28.7 µM
- TGI (PC-3 prostate): > 100 µM
- GI50 (M14 melanoma): 13.3 µM
- TGI (M14 melanoma): 46.3 µM
- GI50 (UACC-62 melanoma): 22.8 µM
- TGI (UACC-62 melanoma): 77.7 µM
- GI50 (COLO 205 colon): 46.8 µM
- TGI (COLO 205 colon): > 100 µM
- GI50 (A549 NSCLC): 25.7 µM
- TGI (A549 NSCLC): > 100 µM
- GI50 (HCT-116 colon): 7.23 µM
- TGI (HCT-116 colon): 36.7 µM
- GI50 (K-562 leukemia): 22.4 µM
- TGI (K-562 leukemia): > 100 µM
- GI50 (SK-MEL-2 melanoma): > 100 µM
- TGI (SK-MEL-2 melanoma): > 100 µM
- GI50 (ACHN renal): 3.91 µM
- TGI (ACHN renal): > 100 µM
- GI50 (HS 578T breast): > 100 µM
- TGI (HS 578T breast): > 100 µM
- GI50 (SK-OV-3 ovarian): 20.2 µM
- TGI (SK-OV-3 ovarian): > 100 µM
- GI50 (HCT-15 colon): 56.8 µM
- TGI (HCT-15 colon): > 100 µM
- GI50 (MCF7 breast): 1.35 µM
- TGI (MCF7 breast): > 100 µM
- GI50 (HOP-62 NSCLC): 2.28 µM
- TGI (HOP-62 NSCLC): 8.64 µM
- GI50 (SK-MEL-5 melanoma): 11.7 µM
- TGI (SK-MEL-5 melanoma): 40.3 µM
- GI50 (OVCAR-8 ovarian): 12.2 µM
- TGI (OVCAR-8 ovarian): > 100 µM
- GI50 (CAKI-1 renal): 27.3 µM
- TGI (CAKI-1 renal): > 100 µM
- GI50 (KM12 colon): 20.9 µM
- TGI (KM12 colon): > 100 µM
- GI50 (CCRF-CEM leukemia): 15.6 µM
- TGI (CCRF-CEM leukemia): > 100 µM
- GI50 (T-47D breast): 7.53 µM
- TGI (T-47D breast): > 100 µM
- GI50 (HT29 colon): 19.6 µM
- TGI (HT29 colon): > 100 µM
- GI50 (IGROV1 ovarian): 17.4 µM
- TGI (IGROV1 ovarian): > 100 µM
- GI50 (NCI-H522 lung): 4.87 µM
- TGI (NCI-H522 lung): > 100 µM
- GI50 (SF-268 CNS): 8.56 µM
- TGI (SF-268 CNS): > 100 µM
- GI50 (RPMI-8226 leukemia): 5.98 µM
- TGI (RPMI-8226 leukemia): 51.8 µM
- GI50 (MOLT-4 leukemia): 2.8 µM
- TGI (MOLT-4 leukemia): 14.2 µM
- GI50 (SR leukemia): 0.0885 µM
- TGI (SR leukemia): 1.74 µM
- GI50 (SN12C renal): 27.4 µM
- TGI (SN12C renal): > 100 µM
- GI50 (HCC-2998 colon): 10.7 µM
- TGI (HCC-2998 colon): > 100 µM
- GI50 (LOX IMVI melanoma): 7.62 µM
- TGI (LOX IMVI melanoma): 38.2 µM
- GI50 (NCI-H460 lung): 4.56 µM
- TGI (NCI-H460 lung): > 100 µM
- GI50 (786-0 renal): 1.96 µM
- TGI (786-0 renal): 9.31 µM
- GI50 (SW-620 colon): 10.2 µM
- TGI (SW-620 colon): > 100 µM
- GI50 (OVCAR-4 ovarian): > 100 µM
- TGI (OVCAR-4 ovarian): > 100 µM

SMILES: O=c1c(-c2ccccc2)c(SCCN2CCOCC2)n(-c2ccccc2)c(=S)n1-c1ccccc1
- TGI (SK-MEL-28 melanoma): > 100 µM
- TGI (TK-10 renal): > 100 µM
- TGI (RXF 393 renal): > 100 µM
- TGI (U251 CNS): > 100 µM
- TGI (MDA-MB-435): > 100 µM
- TGI (NCI-H23 lung): > 100 µM
- TGI (SNB-75 CNS): 87.6 µM
- TGI (OVCAR-5 ovarian): > 100 µM
- TGI (SF-295 CNS): > 100 µM
- TGI (NCI-H226 lung): > 100 µM
- TGI (EKVX NSCLC): > 100 µM
- TGI (NCI/ADR-RES ovarian): > 100 µM
- TGI (MALME-3M melanoma): > 100 µM
- TGI (HOP-92 NSCLC): > 100 µM
- TGI (MDA-MB-231 breast): > 100 µM
- TGI (DU-145 prostate): > 100 µM
- TGI (OVCAR-3 ovarian): > 100 µM
- TGI (UACC-257 melanoma): > 100 µM
- TGI (PC-3 prostate): > 100 µM
- TGI (UACC-62 melanoma): > 100 µM
- TGI (COLO 205 colon): > 100 µM
- TGI (A498 renal): > 100 µM
- TGI (K-562 leukemia): > 100 µM
- TGI (SK-MEL-2 melanoma): > 100 µM
- TGI (ACHN renal): > 100 µM
- TGI (HS 578T breast): > 100 µM
- TGI (SK-OV-3 ovarian): > 100 µM
- TGI (HCT-15 colon): > 100 µM
- TGI (MCF7 breast): > 100 µM
- TGI (HOP-62 NSCLC): > 100 µM
- TGI (SK-MEL-5 melanoma): > 100 µM
- TGI (OVCAR-8 ovarian): > 100 µM
- TGI (CAKI-1 renal): > 100 µM
- TGI (HL-60(TB) leukemia): > 100 µM
- TGI (KM12 colon): > 100 µM
- TGI (CCRF-CEM leukemia): > 100 µM
- TGI (BT-549 breast): > 100 µM
- TGI (IGROV1 ovarian): > 100 µM
- TGI (NCI-H522 lung): > 100 µM
- TGI (RPMI-8226 leukemia): > 100 µM
- TGI (MOLT-4 leukemia): > 100 µM
- TGI (SR leukemia): > 100 µM
- TGI (SF-539 CNS): > 100 µM
- TGI (HCC-2998 colon): > 100 µM
- TGI (LOX IMVI melanoma): > 100 µM
- TGI (NCI-H460 lung): > 100 µM
- TGI (SW-620 colon): > 100 µM
- TGI (OVCAR-4 ovarian): > 100 µM
